Here are results for 2 molecules from article PMC5831858, “Pharmacological characterisation of CR6086, a potent prostaglandin E2 receptor 4 antagonist, as a new potential disease-modifying anti-rheumatic drug” (Arthritis Research & Therapy, 2018).

SMILES strings stand for the structures.

One test deals with IL-23 release. The test can be described thus: IL-23 release from human dendritic cells. Type of test: cell-based. The settings on record: Dendritic cell, at 10 μM, read-out: inhibition of IL-23 release (plateau). How it is done:
PBMCs were purified using Histopaque (Sigma-Aldrich, St. Louis, MO, USA). CD14^+ cells were positively selected in a magnetic field (magnetic-activated cell sorting [MACS]; Miltenyi Biotec, Bergisch Gladbach, Germany). Purified CD14^+ cells were subsequently cultured for 7 days in differentiation medium (RPMI 1640 + 10% FBS, granulocyte-macrophage colony-stimulating factor 50 ng/ml and IL-4 100 ng/ml) and then stimulated with LPS (10 ng/ml), R848 2.5 μg/ml and PGE2 10 nM for 24 h in the presence of CR6086 (0.01–30 μM) or naproxen (1–30 μM). IL-23 release was measured by enzyme-linked immunosorbent assay (ELISA) (R&D Systems, Minneapolis, MN, USA).

The next test relates to IL-17 release. The test can be described thus: IL-17 release from human Th17 cells. Type of test: cell-based. The following applies: 1–10 μM. How it is done: PBMCs were purified using Histopaque. CD4^+CD45^+ naive T cells were indirectly selected in a magnetic field (MACS; Miltenyi Biotec). Purified CD4^+ cells were subsequently cultured for 7 days in differentiation medium (RPMI 1640 + FBS 10%, IL-6 30 ng/ml, transforming growth factor [TGF]-β 2.25 ng/ml, IL-23 30 ng/ml, IL-1β 20 ng/ml, anti-interferon (IFN)-γ 1 ng/ml and anti-IL-4 2.5 ng/ml). Th17 cell expansion was stimulated by addition of anti-CD3/[…]anti-CD28 beads to the medium with a cell-to-beads ratio of 1:2. Th17 cells were stimulated with IL-6 30 ng/ml, TGF-β 2.25 ng/ml, IL-23 30 ng/ml, IL-1β 20 ng/ml and PGE2 10 nM for 48 h in the presence of CR6086 (0.03–10 μM) or naproxen (1–10 μM). IL-17 release was measured by ELISA (Abcam, Cambridge, UK).

The subject of test [1] is arthritic mice (collagen-induced arthritis model). The experiment in a line: CIA in mice, first study: clinical score and paw swelling. Type of test: in vivo, mouse. The settings on record: 10 days; CR6086 30 and 60 mg/kg, naproxen 60 mg/kg oral once daily; etanercept 10 mg/kg i.p. every other day. How it is done: Male DBA/1 mice were immunised by intradermal injection at the base of the tail with an emulsion of 200 μg of bCII in CFA containing 3 mg/ml Mycobacterium tuberculosis. Non-immunised mice served as the negative control of disease. Animals were monitored by visual inspection for appearance of peripheral oedema. […] Upon onset, animals were recruited and randomised. Recruitment was given a cut-off at day 40. Upon recruitment, arthritis clinical score was assigned, and oedema was measured via caliper.
(§1) In a first study, mice were randomised into the following treatment groups: vehicle, 30 mg/kg CR6086, 60 mg/kg CR6086, 60 mg/kg naproxen and 10 mg/kg etanercept. Animals received the test drugs for 10 days. CR6086 and naproxen were administered orally once daily, whereas etanercept was administered intraperitoneally every other day. Animals treated with vehicle, 60 mg/kg CR6086, naproxen and etanercept were additionally analysed for the proportion of populations of Th17 cells, Th1 cells, regulatory T cells, B cells, macrophages, neutrophils and dendritic cells by fluorescence-activated cell sorting (FACS) after collection of blood, draining lymph nodes and joints.
Oedema measurement was performed every day before treatment, and all animals were blindly scored for clinical signs of arthritis as follows: 0 = normal; 1 = slight swelling and/or erythema; 2 = pronounced oedematous swelling; and 3 = ankyloses and severe swelling. A score of 0.5 was given to swollen toe/toes or when inflammation was localised to one part of the foot. Each limb was measured separately, with a final score based on the sum of the scores from all four paws.

For test [2] the test system is unchanged. The test can be described thus: FACS analysis of cell populations in the joint, CIA mice. The following applies: CR6086 60 mg/kg, naproxen 60 mg/kg, etanercept 10 mg/kg, mean ± SEM. It counts as in vivo, mouse. On the procedure: as §1
Background: Flow cytometry measures light scatter and fluorescence of single cells or particles in a stream.

The test system is the same in test [3]. The test can be described thus: CIA in mice, second study: serum cytokines and signal limb histology. The following applies: 60 mg/kg oral daily, 10 days; mean ± SEM. It counts as in vivo, mouse.
For another test, the system named is mouse arthritis models. Set-up: method as in FDA pharmacological review. The following applies: ref FDA pharmacological review; cited from earlier work.
For another test, the system named is rat arthritis models. Set-up: method as in FDA pharmacological review. The following applies: ref FDA pharmacological review; cited from earlier work.

As a reminder, the inhibition is the change of the read-out against control, counted positive when it falls. For the molecule `COc1ccc2cc([C@H](C)C(=O)O)ccc2c1` [Naproxen, naproxen, reference compound], the inhibition at 10 µM in the test on IL-23 release was roughly 50%. For the same molecule, in the test on IL-17 release, the “effect on IL-17 release” value is “inactive”. In addition, the “effect on disease parameters (visual clinical score, paw swelling) vs vehicle” value in test [1] is given as “ineffective”. Further, in test [2], the “B cells, Percentage of total cells” value is reported as 5.77 ± 1.16%; the “Dendritic cells, Percentage of total cells” value was 1.96 ± 0.48%; the “Macrophages, Percentage of total cells” value stood at 16.31 ± 4.44%; the “Neutrophils, Percentage of total cells” value is 16.47 ± 4.48%. Besides, in test [2], the “Th1, Percentage of total cells” value was found to be 0.35 ± 0.07%; the “Th17, Percentage of total cells” value worked out at 0.21 ± 0.08%; the “Treg, Percentage of total cells” value came out at 0.63 ± 0.22%. In test [3], the IFNγ serum concentration is recorded as 3.48 ± 1.10 pg/mL, the IL-10 serum concentration worked out at 16.21 ± 2.23 pg/mL, the IL-17 serum concentration is reported as 2.58 ± 0.43 pg/mL and the TNFα serum concentration amounted to 43.01 ± 4.55 pg/mL.
With `C[C@@H]1CCN(C(=O)CC#N)C[C@@H]1N(C)c1ncnc2[nH]ccc12` [tofacitinib], the “potency in mouse arthritis models” value in the test with mouse arthritis models is recorded as 50 mg/kg. The “potency in rat arthritis models” value with rat arthritis models is reported as 6.2 mg/kg.
